Reference: paper PMC7217877, “N-AS-triggered SPMs are direct regulators of microglia in a model of Alzheimer’s disease” (Nature Communications, 2020)
Several values for one entry are separate records, joined by “and”; a condition that tells them apart may be missing. Equal values may be shown once.

Experiments:
SphK1 = target: T1, SphK1 (Homo sapiens, UniProt Q9NYA1); assay: S1P formation by SphK1 (UPLC, Supplementary Fig 1e); type: biochemical; conditions: acetyl-CoA 0-50 mM
T1 construct: purchased Cayman 10348
T1 sequence (Q9NYA1 whole entry): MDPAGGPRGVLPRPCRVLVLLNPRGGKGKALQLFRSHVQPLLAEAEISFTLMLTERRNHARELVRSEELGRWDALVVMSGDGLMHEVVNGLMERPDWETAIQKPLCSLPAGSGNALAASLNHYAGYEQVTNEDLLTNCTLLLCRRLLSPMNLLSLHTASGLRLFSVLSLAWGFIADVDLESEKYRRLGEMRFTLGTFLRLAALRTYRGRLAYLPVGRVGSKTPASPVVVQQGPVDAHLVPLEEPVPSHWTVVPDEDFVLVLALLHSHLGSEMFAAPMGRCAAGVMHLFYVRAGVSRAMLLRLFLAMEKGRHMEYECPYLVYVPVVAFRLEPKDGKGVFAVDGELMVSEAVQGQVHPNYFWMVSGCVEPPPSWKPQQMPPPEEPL
Description: We confirmed S1P formation through SphK1 enzymatic activity measurements as previously described[11] using a UPLC (Ultra performance liquid chromatography) system (Waters). […] After pre-incubation, 1 mM ATP (Amresco, 0220) was added the mixture, and it was incubated at 37 °C for 1 h. The […] reactions were stopped by adding 53 μl of ethanol, and centrifuged at 15,493×g for 5 min. Thirty microliter of the supernatant was then transferred to a sampling glass vial and 5 μl was applied onto a UPLC system for analysis. S1P formation was followed as phosphorylation of (7-nitro-2-1,3-benzoxadiazol-4-yl)-d-erythro (NBD)-sphingosine (Avanti Polar Lipids) to NBD-S1P. Quantification was achieved by comparison with NBD-S1P (Avanti Polar Lipids) standards.

APP/PS1 mice [1] = assay: RNA seq of microglia from treated mice (Fig 4f-i); type: in vivo, mouse; conditions: N-AS-treated vs vehicle APP/PS1
Description: Transgenic mouse lines over-expressing the hAPP695swe (APP) and presenilin-1M146V (PS1) mutations were originated from GlaxoSmithKline (Harlow, UK)[32] and maintained as described previously. We purchased 5×FAD mice from Jackson Labs (Stock number. 34840-JAX). Because APP/PS1 and 5xFAD mice show sex differences in disease progression, we used only male mice. To examine possible therapeutic effect of N-AS and aspirin in APP/PS1 mice, the N-AS (30 mg kg^−1, Sigma-Aldrich, 01912) was injected daily s.c. for 8 weeks to 7-months-old APP/PS1 mice until the age of 9 months, and aspirin (2 mg kg^−1, Sigma-Aldrich, A5376)[33] was administrated orally to 7-months-old APP/PS1 mice for 8 weeks. […]
Total RNA was isolated in microglia derived from WT, APP/PS1, and APP/PS1 mice treated with N-AS using Trizol reagent (Invitrogen). RNA quality was assessed by Agilent 2100 bioanalyzer using the RNA 6000 Nano Chip (Agilent Technologies, Amstelveen, The Netherlands), and RNA quantification was performed using ND-2000 Spectrophotometer (Thermo Inc., DE, USA). […] Quantification was performed using the library quantification kit using a StepOne Real-Time PCR System (Life Technologies, Inc., USA). […] Then, total RNA-Seq reads were mapped using TopHat software tool in order to obtain bam file (alignment file). […]

APP/PS1 mice [2] = assay: microglial recruitment to Aβ plaques (Iba1/ThioS colocalization, Fig 5a); type: in vivo, mouse; conditions: APP/PS1 + N-AS; cortex; individual values
Description: Thioflavin S (Sigma-Aldrich) staining was carried out according to previously described procedures. We used 6E10 (mouse, 1:100, Signet, SIG39300), anti-20G10 (mouse, 1:1000, provided by D. R. Howlett, GlaxoSmithKline, Harlow, Essex, UK) for Aβ42, anti-G30 (rabbit, 1:1000, provided by D. R. Howlett) for Aβ40, SMA (mouse, 1:400, Sigma-Aldrich, A2547), AT8 (mouse, 1:500, Thermo Fisher Scientific, MN1020), Caspase-3 (mouse, 1:200, Novus Biologicals, NB100-56708), ac-S565 (rabbit, 1:100), COX2 (mouse, 1:250, Thermo Fisher Scientific, 35-8200), Iba1 (rabbit, 1:500, Wako, 019-19941 and goat, Abcam, ab5076), NeuN (mouse, 1:500, Millipore, MAB177), GFAP (rabbit, 1:500, Dako, N1506 and chicken, 1:500, Abcam, ab4674), and Lamp1 (mouse, 1:200, Abcam, ab24170). The sections were analyzed with a laser-scanning confocal microscope (FV3000; Olympus) or with a BX51 microscope (Olympus). MetaMorph software (Molecular Devices) was used to quantification. Three-dimensional reconstruction of microglia was recorded and analyzed using IMARIS software (Bitplane)[11]. For the analysis of age-dependent microglial COX2^+ CX3CR1^+ cells in WT and APP/PS1 mice, COX2 (rabbit, 1:100, Abcam, ab15191) and CX3CR1 (mouse, 1:100, BioLegend, 149008) antibody were used and the images were acquired on Alexa 488 and APC Channel with performed using Operetta CLS and Analysis Software 4.5 (Perkin-Elmer). […]

APP/PS1 mice [3] = assay: western blot of synaptophysin, MAP2, synapsin1, PSD95 in cortex (Supplementary Fig 7a-d); type: in vivo, mouse; design: synaptophysin (western blot, cortex) / MAP2 (western blot, cortex) / synapsin1 (western blot, cortex): scale not given here
Description: Samples were lysed in RIPA buffer (Cell signaling Technologies), then subjected to SDS-PAGE and transferred to a nitrocellulose membrane. Membranes were blocked with 5% milk, incubated with primary antibody and then incubated with the appropriate horseradish peroxidase-conjugated secondary antibody. […] We performed densitometric quantification using the ImageJ software (National Institutes of Health). Images have been cropped for presentation.
Transgenic mouse lines over-expressing the hAPP695swe (APP) and presenilin-1M146V (PS1) mutations were originated from GlaxoSmithKline (Harlow, UK)[32] and maintained as described previously. We purchased 5×FAD mice from Jackson Labs (Stock number. 34840-JAX). Because APP/PS1 and 5xFAD mice show sex differences in disease progression, we used only male mice. To examine possible therapeutic effect of N-AS and aspirin in APP/PS1 mice, the N-AS (30 mg kg^−1, Sigma-Aldrich, 01912) was injected daily s.c. for 8 weeks to 7-months-old APP/PS1 mice until the age of 9 months, and aspirin (2 mg kg^−1, Sigma-Aldrich, A5376)[33] was administrated orally to 7-months-old APP/PS1 mice for 8 weeks. Also, to confirm possible therapeutic efficacy of N-AS in 5×FAD, the N-AS (30 mg kg^−1, Sigma-Aldrich, 01912) was injected daily s.c. for 4 weeks to 3-months-old 5×FAD mice until the age of 4 months. Block randomization method was used to allocate the animals to experimental groups. To eliminate the bias, we were blinded in experimental progress such as data collection and data analysis. Mice were housed at temperature of 22 °C and a 12 h day/12 h night cycle with free access to tap water and food pellets. All protocols were approved by the Kyungpook National University Institutional Animal Care and Use Committee.

Row | Compound | S1P formation by SphK1, in words (SphK1) | microglial gene expression pattern (RNA seq) (APP/PS1 mice [1]) | Aβ containing /Iba1-positive cells per plaque (APP/PS1 mice [2]) | Aβ-positive Microglia/plaque (APP/PS1 mice [2]) | synaptophysin (western blot, cortex) (APP/PS1 mice [3]; APP/PS1 + N-AS, sFig 7a (sheet untitled)) | MAP2 (western blot, cortex) (APP/PS1 mice [3]; APP/PS1 + N-AS, sFig 7b (sheet untitled)) | synapsin1 (western blot, cortex) (APP/PS1 mice [3]; APP/PS1 + N-AS, sFig 7c (sheet untitled)) | PSD95 (western blot, cortex) (APP/PS1 mice [3]; APP/PS1 + N-AS, sFig 7d (sheet untitled)) | expression levels of synaptophysin, MAP2, synapsin1, PSD95 (APP/PS1 mice [3]; N-AS vs APP/PS1)
1 | CC(=O)SCCNC(=O)CCNC(=O)[C@H](O)C(C)(C)COP(=O)(O)OP(=O)(O)OC[C@H]1O[C@@H](n2cnc3c(N)ncnc32)[C@H](O)[C@@H]1OP(=O)(O)O [Acetyl-CoA, acetyl-CoA] | inhibited S1P formation in a concentration dependent fashion |  |  |  |  |  |  |  | 
2 | CCCCCCCCCCCCC/C=C/[C@@H](O)[C@H](CO)NC(C)=O [N-AS, N-((2S,3R,E)-1,3-Dihydroxyoctadec-4-en-2-yl)acetamide] |  | upregulation of several reactive microglial genes | 7.5498 and 5.551 and 5.112 and 5.2638 and 4.818 and 7.514 | 27.3068 and 32.6682 and 21.5669 and 18.8144 and 22.2826 and 28.6878 | 2.567 and 3.1595 and 2.9069 and 1.677 and 2.527 and 2.054 | 0.7541 and 0.8231 and 0.7626 and 0.741 and 0.7343 and 0.8145 | 0.7506 and 0.7227 and 0.685 and 0.6922 and 0.6413 | 0.7284 and 0.7208 and 0.6479 and 0.6548 and 0.6748 and 0.6067 | restored
